Laboratory results: US7169891B2, “Human pellino polypeptides” (Immunex Corporation, priority 2000, dated 2007)
Residues, ends and D or L forms follow the SMILES beside them. *: point of attachment. Cbz = O=C(OCc1ccccc1)*; CH2F = FC*

How the values were obtained:
[1] = tested on: Pellino-1 Cleavage and Relocation; test: Effect of protease and other inhibitors on PMA-induced Pellino-1 cleavage and relocation in COS7 cells; format: cell-based, monkey; details: COS7 cells treated with PMA
Description: In an effort to determine which protease might be involved in the regulation of Pellino-1 cleavage, COS7 cells transfected with a Pellino-1-expressing construct were treated with PMA together with inhibitors of different classes of proteinases as shown in Table 3 below.

Pellino-1 = test: Effect of cell stimulation on Pellino-1 localization and cleavage in transfected COS-7 cells; format: cell-based, monkey; details: for Effect of growth factor incubation on Pellino-1 (cleavage and redistribution): Pellino-1-transfected cells, concentration not given
Description: This example describes the effect of stimulation of COS-7 cells transfected with an expression vector encoding FLAG-Pellino-1 with IL-1 or other molecules. Transfected cells are prepared substantially as described above. […] As Drosophila Pellino was identified by its ability to associate with Pelle, experiments in which Pellino is coexpressed with IRAK have been performed to determine if mammalian Pellino interacted with IRAK, the presumptive mammalian counterpart of Pelle.
To determine if the observed redistribution and proteolytic processing of Pellino-1 specifically required IRAK, Pellino-1-transfected cells were stimulated with agents that activate NF-kB by IRAK-independent pathways such as phorbol myristate acetate (PMA, 100 ng/ml), which is known to promote many of the same intracellular signals as IL-1, and TNF-alpha (20 ng/ml). TNF-alpha activates NF-kB through a mechanism involving the adaptor protein TRADD, the kinase RIP, and TRAF2, while PMA stimulates the activity of protein kinase C which is known to cross-talk with the NF-kB pathway. […] In both cases, 2 to 3 hours of exposure to the stimulus was required before significant Pellino cleavage was seen. The total amount of detectable Pellino-1 polypeptide (the sum of soluble and insoluble fractions) was increased in the presence of PMA or TNF-alpha, which presumably reflects a change in the net rates of Pellino-1 synthesis and/or degradation. […] EGF has been reported in some cells to activate NF-kB through the induction of IkB-alpha degradation.

Compound | Effect on Pellino-1 Cleavage and Relocation ([1]; inhibitor 20 microM) | Effect of growth factor incubation on Pellino-1 (cleavage and redistribution) (Pellino-1) | also measured
CC(C)C[C@@H](C=O)NC(=O)[C@H](CC(C)C)NC(=O)[C@H](CC(C)C)NC(=O)OCc1ccccc1 [MG132] (Cbz-Leu-Leu-Leu-aldehyde) | – | – | Effect on Pellino-1 Cleavage and Relocation ([1]; inhibitor 10 microM): none
Cc1ccc(S(=O)(=O)N[C@@H](Cc2ccccc2)C(=O)CCl)cc1 [TPCK] | inhibition | – | –
COC(=O)CC[C@H](NC(=O)[C@H](CC(=O)OC)NC(=O)OCc1ccccc1)C(=O)N[C@H](C(=O)N[C@@H](CC(=O)OC)C(=O)CF)C(C)C [Z-DEVD-FMK] | none | – | –
COC(=O)C[C@H](NC(=O)[C@H](C)NC(=O)[C@@H](NC(=O)OCc1ccccc1)C(C)C)C(=O)CF [Z-VAD-FMK] (Cbz-Val-Ala-Asp(OMe)-CH2F) | none | – | –
TNF-alpha | – | – | Time after induction at which cleavage and relocation of Pellino-1 began (Pellino-1; TNF-alpha 20 ng/ml, time-course experiments): about three
basic fibroblast growth factor: growth factor | – | little or no effect | –
epidermal growth factor | – | very weakly active | –
platelet-derived growth factor | – | little or no effect | –
transforming growth factor-beta | – | little or no effect | –
